{"source": "patent US20070212428A1", "about": "“METHODS AND COMPOSITIONS FOR TREATING MOOD DISORDER” (MOOD MANAGEMENT SCIENCES, INC., priority 2004, published 2007)", "origin": "cited, not measured here", "key": {"[1]": {"conditions": "cited from earlier work; for time to peak plasma concentration: after oral dosing"}, "[2]": {"system": "norepinephrine neuronal reuptake", "conditions": "cited from earlier work"}, "[3]": {"system": "dopamine neuronal reuptake", "conditions": "cited from earlier work"}, "[4]": {"system": "muscarinic, histaminergic, or a-l adrenergic receptors", "conditions": "in vitro; cited from earlier work"}, "[5]": {"conditions": "cited from earlier work"}, "monoamine oxidase": {"system": "monoamine oxidase", "conditions": "cited from earlier work"}, "[6]": {"system": "neuronal serotonin reuptake", "conditions": "cited from earlier work"}, "[7]": {"conditions": "co-administered with venlafaxine"}}, "note": "Where a name gives a salt, the structure may show the parent alone. Read-outs that look alike come from different tables or passages of the source.", "data": [{"molecule": "CSc1ccc2c(c1)N(CCC1CCCCN1C)c1ccccc1S2", "note": "(centres unmarked) [thioridazine, 2-methylmercapto-10-[2-(N-methyl-2-piperidyl)ethyl]phenothiazine]", "values": [{"measurement": "elimination half-life", "setting": "[1]; plasma", "value": "approximately 10 hours"}]}, {"molecule": "NC(=O)N1c2ccccc2CC(O)c2ccccc21", "note": "(centres unmarked) [MHD]", "values": [{"measurement": "elimination half-life", "setting": "[1]; human, in vivo", "value": "about 9 hours"}]}, {"molecule": "Clc1ccc2c(c1)C(N1CCNCC1)=Nc1ccccc1O2", "note": "[amoxapine, 2-Chloro-11-(1-piperazinyl)dibenz-[b,f][1,4]oxazepine]", "values": [{"measurement": "time to peak plasma concentration", "setting": "[1]", "value": "approximately 90 minutes"}, {"measurement": "oral absorption (in words)", "setting": "[1]; oral administration", "value": "absorbed rapidly"}]}, {"molecule": "COc1ccc(C(CN(C)C)C2(O)CCCCC2)cc1.Cl", "note": "(racemic) [venlafaxine, (R/S)-1-[2-(dimethylamino)-1-(4-methoxyphenyl)ethyl] cyclohexanol hydrochloride]", "values": [{"measurement": "effect on norepinephrine reuptake (in words)", "setting": "[2]", "value": "potent inhibitors"}, {"measurement": "effect on dopamine reuptake (in words)", "setting": "[3]", "value": "weak inhibitors"}, {"measurement": "affinity", "setting": "[4]", "value": "not significant affinity"}, {"measurement": "oral absorption (in words)", "setting": "[1]; oral administration", "value": "well absorbed"}, {"measurement": "elimination half-life", "setting": "[1]; plasma", "value": "3 to 7", "unit": "h"}, {"measurement": "fraction renally excreted within 48 hours", "setting": "[1]; single dose", "value": 87, "unit": "%"}, {"measurement": "steady-state pharmacokinetics", "setting": "[5]; venlafaxine 150 mg/day with a single 600 mg oral dose of lithium, 12 healthy males", "value": "unaffected"}]}, {"molecule": "NNCCc1ccccc1", "note": "[phenelzine sulfate, (2-phenethyl)hydrazine]", "values": [{"measurement": "inhibition of monoamine oxidase", "setting": "monoamine oxidase", "value": "potent inhibitor"}, {"measurement": "time to peak plasma concentration", "setting": "[1]", "value": 0.717, "unit": "h"}, {"measurement": "elimination half-life", "setting": "[1]; plasma", "value": 11.6, "unit": "h"}]}, {"molecule": "CCc1nn(CCCN2CCN(c3cccc(Cl)c3)CC2)c(=O)n1CCOc1ccccc1", "note": "[nefazodone, 2-[3-[4-(3-chlorophenyl)-1-piperazinyl]propyl]-5-ethyl-2,4-dihydro-4-(2-phenoxyethyl)-3H-,1,2,4-triazo-3-one monohydrochloride]", "values": [{"measurement": "elimination half-life", "setting": "[1]; plasma", "value": "2 to 4", "unit": "h"}]}, {"molecule": "CC[C@@H](C(N)=O)N1CCCC1=O", "note": "[levetiracetam, (−)-(S)-α-ethyl-2-oxo-1-pyrrolidine acetamide]", "values": [{"measurement": "time to peak plasma concentration", "setting": "[1]", "value": "about an hour"}, {"measurement": "reduction of clearance", "setting": "[1]; moderate renal impairment", "value": 50, "unit": "%"}, {"measurement": "oral absorption (in words)", "setting": "[1]; oral administration", "value": "rapidly and almost completely absorbed"}, {"measurement": "elimination half-life", "setting": "[1]; plasma", "value": "approximately 7 hours"}, {"measurement": "reduction of clearance", "setting": "[1]; severe renal impairment", "value": 60, "unit": "%"}]}, {"molecule": "CNCCCC12CCC(c3ccccc31)c1ccccc12", "note": "[maprotiline, N-Methyl-9,10-ethanoanthracene-9(10H)-propanamine]", "values": [{"measurement": "oral absorption (in words)", "setting": "[1]; oral administration", "value": "completely absorbed"}]}, {"molecule": "CC1(C)O[C@@H]2[C@@H](CO[C@@]3(COS(N)(=O)=O)OC(C)(C)O[C@@H]23)O1", "note": "[topiramate, 2,3:4,5-Di-O-isopropylidene-β-D-fructopyranose sulfamate]", "values": [{"measurement": "time to peak plasma concentration", "setting": "[1]", "value": "approximately 2 hours"}, {"measurement": "reduction of clearance", "setting": "[1]; moderate renal impairment", "value": 42, "unit": "%"}, {"measurement": "oral absorption (in words)", "setting": "[1]; oral administration", "value": "rapid"}, {"measurement": "time to steady state plasma concentrations", "setting": "[1]; repeated dosing", "value": "about 4 days"}, {"measurement": "reduction of clearance", "setting": "[1]; severe renal impairment", "value": 54, "unit": "%"}]}, {"molecule": "O=c1ccc2ccc(OCCCCN3CCN(c4cccc(Cl)c4Cl)CC3)cc2[nH]1", "note": "[dehydro-aripiprazole]", "values": [{"measurement": "pharmacokinetics", "setting": "[5]; lithium (1200-1800 mg/day) for 21 days with aripiprazole (30 mg/day)", "value": "did not result in clinically significant changes"}]}, {"molecule": "CN(C)CC(c1ccc(O)cc1)C1(O)CCCCC1", "note": "(centres unmarked) [ODV, O-desmethylvenlafaxine]", "values": [{"measurement": "inhibition of serotonin reuptake (in words)", "setting": "[6]", "value": "potent inhibitors"}, {"measurement": "effect on norepinephrine reuptake (in words)", "setting": "[2]", "value": "potent inhibitors"}, {"measurement": "effect on dopamine reuptake (in words)", "setting": "[3]", "value": "weak inhibitors"}, {"measurement": "affinity", "setting": "[4]", "value": "not significant affinity"}, {"measurement": "elimination half-life", "setting": "[1]; human, in vivo", "value": "9 to 13", "unit": "h"}]}, {"molecule": "O=C(CCCN1CCC(O)(c2ccc(Cl)cc2)CC1)c1ccc(F)cc1", "note": "[haloperidol, 4-[4-(p-chlorophenyl)-4-hydroxypiperidino]-4′-fluorobutyrophenone]", "values": [{"measurement": "time to peak plasma level", "setting": "[1]; after i.m. injection", "value": "about 20 minutes"}, {"measurement": "half life", "setting": "[5]; [7]", "value": "unchanged"}, {"measurement": "increase of peak plasma concentration (Cmax)", "setting": "[5]; [7]", "value": 88, "unit": "%"}, {"measurement": "increase in the area under the plasma concentration curve", "setting": "[5]; single 2 mg dose of haloperidol with venlafaxine 150 mg/day", "value": 70, "unit": "%"}]}, {"molecule": "CN(C)CCCN1c2ccccc2Sc2ccc(Cl)cc21", "note": "[chlorpromazine, 10-(3-dimethylaminopropyl)-2-chlorphenothiazine]", "values": [{"measurement": "oral absorption (in words)", "setting": "[1]; oral administration", "value": "readily absorbed"}, {"measurement": "elimination half-life", "setting": "[1]; plasma", "value": "approximately 30 hours"}]}, {"molecule": "CN1CCN(C2=Nc3ccccc3Oc3ccc(Cl)cc32)CC1", "note": "[loxapine succinate, 2-Chloro-11-(4-methyl-1-piperazinyl)dibenz[b,f][1,4]oxazepine]", "values": [{"measurement": "oral absorption (in words)", "setting": "[1]; oral administration", "value": "virtually complete"}, {"measurement": "time of excretion", "setting": "[1]; oral administration", "value": "mainly in the first 24 hours"}]}, {"molecule": "CN(C)CCCC1(c2ccc(F)cc2)OCc2cc(C#N)ccc21", "note": "(racemic) [citalopram, (±)-1-[3-(dimethylamino)propyl]-1-(4-fluorophenyl)-1,3-dihydro-5-isobenzofuran carbonitrile, hydrobromide]", "values": [{"measurement": "time to peak plasma concentration", "setting": "[1]", "value": "four"}, {"measurement": "time to steady state plasma concentrations", "setting": "[1]; daily dosing", "value": "a week"}, {"measurement": "increase of half life in elderly patients", "setting": "[1]; elderly patients", "value": "23-50%"}, {"measurement": "elimination half-life", "setting": "[1]; plasma", "value": "about 35 hours"}]}, {"molecule": "O=c1n(CCCN2CCN(c3cccc(Cl)c3)CC2)nc2ccccn12", "note": "[trazodone, 2-[3-[4-(3-chlorophenyl)-1-piperazinyl]propyl]-1,2,4-triazolo[4,3-a]pyridin-3(2H)-one]", "values": [{"measurement": "time to peak plasma levels", "setting": "[1]; taken with food", "value": "two"}]}, {"molecule": "[Li]", "note": "[lithium]", "values": [{"measurement": "CSF lithium level at equilibration relative to the plasma concentration", "setting": "[1]; human, in vivo", "value": "approximately half"}, {"measurement": "fraction eliminated with the feces", "setting": "[1]; human, in vivo", "value": "less than 1%"}, {"measurement": "fraction of a single dose eliminated in urine", "setting": "[1]; human, in vivo", "value": "Approximately 95%"}, {"measurement": "fraction of a single dose excreted in 24 hours", "setting": "[1]; human, in vivo", "value": "About 50%"}, {"measurement": "fraction of the filtered lithium reabsorbed in the tubules", "setting": "[1]; human, in vivo", "value": 80, "unit": "%"}, {"measurement": "oral absorption (in words)", "setting": "[1]; oral administration", "value": "rapidly absorbed"}, {"measurement": "time to steady state plasma concentrations", "setting": "[1]; repeated dosing", "value": "five to six"}, {"measurement": "AUC and peak plasma concentrations of lithium", "setting": "[5]; co-administered with risperidone", "value": "unaffected"}, {"measurement": "kinetics of lithium", "setting": "[5]; multiple doses of olanzapine (10 mg for 8 days)", "value": "did not influence"}, {"measurement": "steady state kinetics of lithium", "setting": "[5]; valproate (500 mg BID) with lithium carbonate (300 mg TID), normal male volunteers", "value": "not effect"}, {"measurement": "steady-state pharmacokinetic parameters of lithium", "setting": "[5]; with quetiapine (250 mg TID)", "value": "no effect"}, {"measurement": "steady-state pharmacokinetics of lithium", "setting": "[5]; with venlafaxine", "value": "unaffected"}, {"measurement": "steady state level and renal clearance of lithium", "setting": "[5]; ziprasidone (40 mg BID) with lithium (450 mg BID for 7 days)", "value": "not affected"}]}, {"molecule": "NS(=O)(=O)Cc1noc2ccccc12", "note": "[zonisamide, 1,2-benzisoxazole-3-methanesulfonamide]", "values": [{"measurement": "time to peak plasma concentration", "setting": "[1]", "value": "2 to 6", "unit": "h"}, {"measurement": "elimination half-life", "setting": "[1]; plasma", "value": "about 63 hours"}, {"measurement": "elimination half-life in RBC", "setting": "[1]; red blood cells", "value": "approximately 105 hours"}, {"measurement": "time to steady state plasma concentrations", "setting": "[1]; repeated dosing", "value": "≤ 14", "unit": "days"}]}, {"molecule": "NC(=O)C[S+]([O-])C(c1ccccc1)c1ccccc1", "note": "(centres unmarked) [modafinil, 2-[(diphenylmethyl)sulfinyl]acetamide]", "values": [{"measurement": "time to peak plasma concentration", "setting": "[1]", "value": "2 to 4", "unit": "h"}, {"measurement": "oral absorption (in words)", "setting": "[1]; oral administration", "value": "rapid"}]}, {"molecule": "CCCC(CCC)C(=O)O", "note": "[valproate, sodium hydrogen bis(2-propylpentanoate)]", "values": [{"measurement": "effect on each drug's metabolism", "setting": "[5]; olanzapine co-administered with valproate", "value": "little effect"}]}]}
